# Counter-ions that a name gives are not always drawn.
# Key:
# Format in all cases: biochemical
# Human Tyk2 kinase domain = biological target: T1, Human Tyk2 kinase domain (Homo sapiens, UniProt P29597); assay: Tyk2 Inhibition Assay (Omnia kinase fluorescence peptide substrate assay); conditions: averaged IC50 ranges; assay of Example A; 10 μM (Km app) or 1 mM ATP, 2 nM Tyk2
# T1 construct: comprising amino acids 886 to 1187 with 10 additional histidine residues; 10xHis (histidine tag) (C, cleaved yes); made in house
# T1 sequence (P29597 886-1187): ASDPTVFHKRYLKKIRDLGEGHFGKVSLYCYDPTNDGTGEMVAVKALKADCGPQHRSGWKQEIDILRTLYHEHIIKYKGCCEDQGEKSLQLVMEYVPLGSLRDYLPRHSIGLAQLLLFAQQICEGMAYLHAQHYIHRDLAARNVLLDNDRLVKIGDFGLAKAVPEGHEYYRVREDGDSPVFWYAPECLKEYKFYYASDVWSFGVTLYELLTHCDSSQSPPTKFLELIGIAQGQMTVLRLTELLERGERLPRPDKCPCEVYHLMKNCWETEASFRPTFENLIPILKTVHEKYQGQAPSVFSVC
# Outline: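 2 nM His-tag-cleaved kinase domain (aa 886–1187) with 8 μM Omnia Y12 peptide, 10 μM (Km app) or 1 mM ATP, pH 7.4 HEPES/10 mM MgCl2, 2% DMSO. Fluorescence (ex 360/em 485 nm) every 50 s for 45 min; IC50 from 4-parameter fit of POC, top dose 10 μM.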
# JAK2 = biological target: T2, JAK2 (Homo sapiens, UniProt O60674); assay: JAK2 Inhibition Assay (Omnia kinase fluorescence peptide substrate assay); conditions: averaged IC50 ranges; assay of Example C; 25 μM (Km app) or 1 mM ATP, 5 nM JAK2
# T2 construct: purchased Invitrogen Corporation, Carlsbad, Calif; PV4288
# T2 sequence (O60674 whole entry): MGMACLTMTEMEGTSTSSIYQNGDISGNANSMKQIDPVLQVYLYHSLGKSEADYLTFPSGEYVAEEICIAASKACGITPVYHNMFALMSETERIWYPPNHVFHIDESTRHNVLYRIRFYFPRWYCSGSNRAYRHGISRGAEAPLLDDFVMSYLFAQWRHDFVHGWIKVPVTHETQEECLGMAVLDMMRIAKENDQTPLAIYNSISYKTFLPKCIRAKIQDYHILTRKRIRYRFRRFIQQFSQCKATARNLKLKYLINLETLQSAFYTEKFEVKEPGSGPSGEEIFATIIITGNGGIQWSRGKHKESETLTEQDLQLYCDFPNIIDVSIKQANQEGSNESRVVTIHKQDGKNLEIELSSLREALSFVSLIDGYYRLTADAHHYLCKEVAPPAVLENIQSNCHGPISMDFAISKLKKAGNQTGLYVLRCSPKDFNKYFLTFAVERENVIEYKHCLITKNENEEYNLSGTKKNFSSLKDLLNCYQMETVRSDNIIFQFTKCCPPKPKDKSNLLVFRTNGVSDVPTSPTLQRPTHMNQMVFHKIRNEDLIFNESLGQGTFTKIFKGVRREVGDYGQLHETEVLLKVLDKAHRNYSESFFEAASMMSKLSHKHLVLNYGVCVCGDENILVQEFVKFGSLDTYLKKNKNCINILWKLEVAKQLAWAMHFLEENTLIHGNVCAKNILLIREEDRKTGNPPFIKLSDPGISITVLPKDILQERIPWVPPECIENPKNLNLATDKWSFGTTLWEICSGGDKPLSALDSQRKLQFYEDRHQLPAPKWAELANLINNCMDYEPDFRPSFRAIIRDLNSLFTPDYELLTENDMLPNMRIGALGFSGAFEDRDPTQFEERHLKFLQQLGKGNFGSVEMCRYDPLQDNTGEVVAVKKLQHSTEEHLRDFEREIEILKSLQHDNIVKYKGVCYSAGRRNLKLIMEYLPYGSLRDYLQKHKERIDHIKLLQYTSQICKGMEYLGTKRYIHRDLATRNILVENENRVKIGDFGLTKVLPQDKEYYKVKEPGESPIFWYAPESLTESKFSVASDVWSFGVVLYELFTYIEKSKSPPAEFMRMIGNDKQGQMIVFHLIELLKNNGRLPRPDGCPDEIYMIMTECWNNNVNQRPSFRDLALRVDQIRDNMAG
# Outline: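 A 10-point, 3-fold compound series (top 10 μM, 2% DMSO) was tested against 5 nM JAK2 with 10 μM Omnia Y7 substrate and either 1 mM or 25 μM (Km app) ATP. Buffer: pH 7.4 HEPES, MgCl2, Triton X-100, DTT. Sox fluorescence was monitored kinetically for 45 min; IC50 is the concentration giving 50 POC on a 4-parameter fit.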
# JAK3 = biological target: T3, JAK3 (Homo sapiens, UniProt P52333); assay: JAK3 Inhibition Assay (Omnia kinase fluorescence peptide substrate assay); conditions: averaged IC50 ranges; assay of Example D; 10 μM (Km app) or 1 mM ATP, 2.5 nM JAK3
# T3 construct: purchased Invitrogen Corporation, Carlsbad, Calif; PV4080
# T3 sequence (P52333 1-1124): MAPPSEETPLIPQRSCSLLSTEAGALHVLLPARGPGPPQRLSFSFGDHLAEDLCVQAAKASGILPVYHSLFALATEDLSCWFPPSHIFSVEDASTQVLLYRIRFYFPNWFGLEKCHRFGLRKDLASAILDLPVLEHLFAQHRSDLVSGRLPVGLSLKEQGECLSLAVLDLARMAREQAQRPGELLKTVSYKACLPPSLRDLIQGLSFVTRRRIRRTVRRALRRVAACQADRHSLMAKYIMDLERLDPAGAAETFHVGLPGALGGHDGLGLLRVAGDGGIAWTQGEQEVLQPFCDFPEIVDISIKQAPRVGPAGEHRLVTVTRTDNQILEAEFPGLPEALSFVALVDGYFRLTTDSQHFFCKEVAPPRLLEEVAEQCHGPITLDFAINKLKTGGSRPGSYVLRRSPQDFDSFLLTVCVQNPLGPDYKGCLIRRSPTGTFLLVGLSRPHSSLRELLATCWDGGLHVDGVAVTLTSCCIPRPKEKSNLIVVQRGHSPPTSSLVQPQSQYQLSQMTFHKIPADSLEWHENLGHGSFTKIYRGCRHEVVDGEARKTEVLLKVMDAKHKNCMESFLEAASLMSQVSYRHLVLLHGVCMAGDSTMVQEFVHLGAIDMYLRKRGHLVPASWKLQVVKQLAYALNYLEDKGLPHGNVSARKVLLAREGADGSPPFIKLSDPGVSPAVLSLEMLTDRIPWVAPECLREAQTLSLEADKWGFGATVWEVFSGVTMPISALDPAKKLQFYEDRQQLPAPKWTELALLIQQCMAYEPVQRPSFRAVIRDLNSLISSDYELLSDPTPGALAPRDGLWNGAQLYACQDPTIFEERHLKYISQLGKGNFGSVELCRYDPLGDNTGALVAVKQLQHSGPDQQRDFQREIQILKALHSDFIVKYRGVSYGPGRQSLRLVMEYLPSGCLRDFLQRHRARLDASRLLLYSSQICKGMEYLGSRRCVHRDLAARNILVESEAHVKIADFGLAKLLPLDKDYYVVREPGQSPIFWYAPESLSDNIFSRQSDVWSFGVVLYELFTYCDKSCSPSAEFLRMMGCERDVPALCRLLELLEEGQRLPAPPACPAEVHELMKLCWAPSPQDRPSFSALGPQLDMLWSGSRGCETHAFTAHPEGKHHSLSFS
# Outline: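 Kinase at 2.5 nM with 10 µM Omnia Y7 peptide and 10 µM (Km app) or 1 mM ATP in 25 mM HEPES pH 7.4, 10 mM MgCl2, 1 mM DTT, 0.01% Triton X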
# JAK1 = biological target: T4, JAK1 (Homo sapiens, UniProt P23458); assay: JAK1 Inhibition Assay (Omnia kinase fluorescence peptide substrate assay); conditions: averaged IC50 ranges; assay of Example B; 40 μM (Km app) or 1 mM ATP, 15 nM JAK1
# T4 construct: purchased Invitrogen Corporation, Carlsbad, Calif; PV4775
# T4 sequence (P23458 whole entry): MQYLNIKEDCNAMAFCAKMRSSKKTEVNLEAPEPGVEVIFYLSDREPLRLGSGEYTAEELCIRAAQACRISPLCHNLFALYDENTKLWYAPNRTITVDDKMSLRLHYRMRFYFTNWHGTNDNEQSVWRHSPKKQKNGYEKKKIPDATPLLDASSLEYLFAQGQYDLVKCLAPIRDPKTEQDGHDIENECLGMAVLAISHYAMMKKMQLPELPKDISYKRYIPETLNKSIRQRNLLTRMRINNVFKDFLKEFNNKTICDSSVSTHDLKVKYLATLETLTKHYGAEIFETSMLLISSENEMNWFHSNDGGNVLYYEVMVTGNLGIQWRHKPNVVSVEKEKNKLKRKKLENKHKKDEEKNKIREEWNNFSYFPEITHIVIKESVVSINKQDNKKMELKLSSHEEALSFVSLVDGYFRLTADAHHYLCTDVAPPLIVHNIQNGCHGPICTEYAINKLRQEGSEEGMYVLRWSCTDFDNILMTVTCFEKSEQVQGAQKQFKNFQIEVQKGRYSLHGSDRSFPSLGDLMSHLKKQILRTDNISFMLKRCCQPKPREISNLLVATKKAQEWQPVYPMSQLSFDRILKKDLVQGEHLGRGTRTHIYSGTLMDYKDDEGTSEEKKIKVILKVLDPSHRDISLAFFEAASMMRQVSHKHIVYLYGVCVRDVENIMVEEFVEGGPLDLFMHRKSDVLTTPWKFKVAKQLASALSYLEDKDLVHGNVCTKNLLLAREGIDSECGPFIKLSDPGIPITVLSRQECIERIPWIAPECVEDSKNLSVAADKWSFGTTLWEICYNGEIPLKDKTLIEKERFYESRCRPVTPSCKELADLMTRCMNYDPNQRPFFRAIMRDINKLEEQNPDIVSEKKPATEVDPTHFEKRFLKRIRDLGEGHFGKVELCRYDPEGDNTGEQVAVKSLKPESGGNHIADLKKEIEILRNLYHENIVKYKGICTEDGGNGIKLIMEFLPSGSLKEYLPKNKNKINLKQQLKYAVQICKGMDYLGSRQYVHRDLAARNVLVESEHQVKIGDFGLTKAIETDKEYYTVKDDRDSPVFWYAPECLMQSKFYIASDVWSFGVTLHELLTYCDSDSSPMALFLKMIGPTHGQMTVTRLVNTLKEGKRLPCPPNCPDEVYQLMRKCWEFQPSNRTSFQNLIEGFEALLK
IC50 (Human Tyk2 kinase domain) [nM],IC50 (JAK2) [nM],IC50 (JAK3) [nM],IC50 (JAK1) [nM],SMILES
10 to 100,100 to 1000,> 1000,> 1000,"CN1CCC(CC#N)(n2cc(-c3nc(-c4cnn(C)c4)cc4nccn34)cn2)CC1 [Example 28, 2-(1-methyl-4-(4-(7-(1-methyl-1H-pyrazol-4-yl)imidazo[1,2-c]pyrimidin-5-yl)-1H-pyrazol-1-yl)piperidin-4-yl)acetonitrile]"
10 to 100,100 to 1000,> 1000,100 to 1000,"Cn1cc(-c2cc3nccn3c(-c3ccn(C4(CC#N)CNC4)c3)n2)cn1 [Example 127, 2-(3-(3-(7-(1-Methyl-1H-pyrazol-4-yl)imidazo[1,2-c]pyrimidin-5-yl)-1H-pyrrol-1-yl)azetidin-3-yl)acetonitrile trifluoroacetate]"
< 10,10 to 100,> 1000,100 to 1000,"N#CCC1(n2cc(-c3nc(-c4cnn(C5COC5)c4)cc4nccn34)cn2)CN(CC(F)(F)F)C1 [Example 105, 2-(3-(4-(7-(1-(Oxetan-3-yl)-1H-pyrazol-4-yl)imidazo[1,2-c]pyrimidin-5-yl)-1H-pyrazol-1-yl)-1-(2,2,2-trifluoroethyl)azetidin-3-yl)acetonitrile]"
< 10,10 to 100,100 to 1000,100 to 1000,"CC(C)n1cc(-c2cc3nccn3c(-c3cnn(C(CC#N)C4CC4)c3)n2)cn1 (centres unmarked) [Example 34, 3-Cyclopropyl-3-(4-(7-(1-isopropyl-1H-pyrazol-4-yl)imidazo[1,2-c]pyrimidin-5-yl)-1H-pyrazol-1-yl)propanenitrile]"
< 10,10 to 100,> 1000,10 to 100,Cn1cc(-c2cc3nccn3c(-c3ccn(C4(CC#N)CN(S(=O)(=O)C5CC5)C4)c3)n2)cn1 [Example 136]
10 to 100,100 to 1000,> 1000,100 to 1000,"Cn1cc(-c2cc3nccn3c(-c3cnn(C4(CC#N)CCCCC4)c3)n2)cn1 [Example 22, 2-(1-(4-(7-(1-methyl-1H-pyrazol-4-yl)imidazo[1,2-c]pyrimidin-5-yl)-1H-pyrazol-1-yl)cyclohexyl)acetonitrile]"
< 10,10 to 100,> 1000,100 to 1000,"Cn1cc(-c2cc3nccn3c(-c3cnn(C4(CC#N)CN(CC(F)(F)F)C4)c3)n2)cn1 [Example 71, 2-(3-(4-(7-(1-methyl-1H-pyrazol-4-yl)imidazo[1,2-c]pyrimidin-5-yl)-1H-pyrazol-1-yl)-1-(2,2,2-trifluoroethyl)azetidin-3-yl)acetonitrile]"
10 to 100,10 to 100,> 1000,100 to 1000,"COc1cncc(C(CC#N)n2cc(-c3nc(-c4cnn(C)c4)cc4nccn34)cn2)c1 (centres unmarked) [Example 9, 3-(5-methoxypyridin-3-yl)-3-(4-(7-(1-methyl-1H-pyrazol-4-yl)imidazo[1,2-c]pyrimidin-5-yl)-1H-pyrazol-1-yl)propanenitrile]"
< 10,10 to 100,100 to 1000,10 to 100,"Cn1cc(-c2cc3ncc(Cl)n3c(-c3cnn(C4(CC#N)CN(S(=O)(=O)C(F)(F)F)C4)c3)n2)cn1 [Example 155, 2-(3-(4-(3-chloro-7-(1-methyl-1H-pyrazol-4-yl)imidazo[1,2-c]pyrimidin-5-yl)-1H-pyrazol-1-yl)-1-((trifluoromethyl)sulfonyl)azetidin-3-yl)acetonitrile]"
10 to 100,10 to 100,100 to 1000,10 to 100,"Cn1cc(-c2cc3nccn3c(-c3cnn(C(CC#N)c4ccc(Cl)cc4)c3)n2)cn1 (centres unmarked) [Example 14, 3-(4-chlorophenyl)-3-(4-(7-(1-methyl-1H-pyrazol-4-yl)imidazo[1,2-c]pyrimidin-5-yl)-1H-pyrazol-1-yl)propanenitrile]"
< 10,10 to 100,100 to 1000,10 to 100,"CN1CCN(c2ccc(-c3cc4nccn4c(-c4cnn(C5(CC#N)CN(S(=O)(=O)C(F)(F)F)C5)c4)n3)cc2)CC1 [Example 138, 2-(3-(4-(7-(4-(4-methylpiperazin-1-yl)phenyl)imidazo[1,2-c]pyrimidin-5-yl)-1H-pyrazol-1-yl)-1-(trifluoromethylsulfonyl)azetidin-3-yl)acetonitrile]"
10 to 100,10 to 100,100 to 1000,100 to 1000,Cc1ncc(-c2cc3nccn3c(-c3cnn(C(CC#N)C4CC4)c3)n2)s1 (centres unmarked) [Example 48]
100 to 1000,100 to 1000,> 1000,> 1000,"Cn1cc(-c2cc3nccn3c(-c3cnn(C4(CC#N)CN(Cc5ccccc5)C4)c3)n2)cn1 [Example 88, 2-(1-benzyl-3-(4-(7-(1-methyl-1H-pyrazol-4-yl)imidazo[1,2-c]pyrimidin-5-yl)-1H-pyrazol-1-yl)azetidin-3-yl)acetonitrile]"
< 10,10 to 100,> 1000,100 to 1000,"CCn1cc(-c2cc3nccn3c(-c3cnn(C4(CC#N)CN(CC(F)(F)F)C4)c3)n2)cn1 [Example 104, 2-(3-(4-(7-(1-Ethyl-1H-pyrazol-4-yl)imidazo[1,2-c]pyrimidin-5-yl)-1H-pyrazol-1-yl)-1-(2,2,2-trifluoroethyl)azetidin-3-yl)acetonitrile]"
< 10,10 to 100,> 1000,100 to 1000,"Cc1nn(C(CC#N)C2CCCC2)cc1-c1nc(-c2ccc(N3CCOCC3)cc2)cc2nccn12 (centres unmarked) [Example 121, 3-Cyclopentyl-3-(3-methyl-4-(7-(4-morpholinophenyl)imidazo[1,2-c]pyrimidin-5-yl)-1H-pyrazol-1-yl)propanenitrile]"
100 to 1000,100 to 1000,> 1000,> 1000,"Cn1cc(-c2cc3nccn3c(-c3ccn(C4(CC#N)CNC4)n3)n2)cn1 [Example 130, 2-(3-(3-(7-(1-Methyl-1H-pyrazol-4-yl)imidazo[1,2-c]pyrimidin-5-yl)-1H-pyrazol-1-yl)azetidin-3-yl)acetonitrile hydrochloride]"
< 10,10 to 100,100 to 1000,10 to 100,"Cn1cc(-c2cc3nccn3c(-c3cnn(C(CC#N)CC#N)c3)n2)cn1 [Example 1, 3-(4-(7-(1-methyl-1H-pyrazol-4-yl)imidazo[1,2-c]pyrimidin-5-yl)-1H-pyrazol-1-yl)pentanedinitrile]"

# From patent US8962596B2 (Array BioPharma Inc., priority 2010, dated 2015)
